According to patent publication US20090215884A1, “METHOD FOR WOUND HEALING” (priority 2005, published 2009):

Test system: rat full-thickness incisional wounds
Assay: Rat incisional wound healing model: tensiometric assessment of wound strength
Format: in vivo
Conditions: single topical treatment
Excerpt: In order to examine the effects of PEP005 on the repair of acute (surgical) incisional wounds, involving minimal new tissue generation, the rat, full-thickness incisional wound healing model, was employed.
Adult male Sprague Dawley rats (Harlan U.K. Ltd., Oxfordshire, U.K.), approximately 8-10 weeks old and weighing between 250-300 g, were used in this study. The animals were initially housed in groups of up to four per cage (cage dimensions 40×25×20 cm, with sawdust bedding, changed twice weekly), according to Home Office regulations, in an environment maintained at an ambient temperature of 23° C. with 12-hour light/dark cycles. The animals were provided food (Standard Rodent Diet) and water ad libitum. In order to acclimatize the animals to their surroundings, prior to experimentation, the animals were housed for a minimum of one week without disturbance, other than to refresh their bedding and to replenish their food and water provisions. Following wounding, animals were monitored under individual housed conditions until fully recovered from the procedure. Animals were then maintained individually for a period of 2 weeks (i.e. until their wounds have fully re-epithelialized). After this initial 2-week period, animals were maintained in groups of up to four for the remainder of the study. All animal procedures were performed in a Home Office licensed establishment, under U.K. Home Office Licences (PPL: 40/2650; PIL: 70/4934 and PIL: 60/7661).
Animals were anaesthetized using inhalation of Halothane and air, and the dorsum of each rat shaved and washed with the bactericide, chlorhexidine gluconate (0.05% aqueous). Four full-thickness incisional wounds (1 cm in length, include the panniculus carnosus and hypodermis) were created on the backs of each animal. Wounds remained unsutured (allowed to gape), in order to allow granulation tissue to form within the wounds. Following wounding (day 0), one of the four PEP005 concentrations (PEP005-free, DMSO/isopropanol gel vehicle, 0.01%, 0.028% or 0.05% PEP005) were applied to each wound, whilst non-treated wound controls remained untreated. […]
Immediately after injury, single treatments of the 0.01%, 0.028% PEP005, or DMSO/isopropanol vehicle gels, were applied at volumes of 10 μl per 100 mm^2 (1 μg/10 μl, 2.8 μg/10 μl and 5 μg/10 μl PEP005, respectively), to the marginal skin surrounding each wound, with a total area of 600 mm^2 of marginal skin receiving treatment. […] Rats were maintained in their respective experimental groups for 1, 4 and 12 weeks, when the animals in each group were euthanized and the condition of wound and peri-wound tissues (in terms of viability, erythema, oedema, etc.), monitored at all assessment points, according to Table 2.1. […]

C/C=C(/C)C(=O)O[C@H]1C(C)=C[C@]23C(=O)[C@@H](C=C(CO)[C@@H](O)[C@]12O)[C@H]1[C@@H](C[C@H]3C)C1(C)C [PEP005, ingenol-3-angelate]
mean tensile strength of wound (week 4, 0.01%, 0.028%, 0.05% PEP005 gel): dose dependent trend, with increasing tensile strength | mean tensile strength of wound (week 12, 0.01% PEP005 gel): increasing | mean tensile strength of wound (week 12, 0.028% PEP005 gel): declining at 0.028% to control levels | mean tensile strength of wound (week 12, 0.05% PEP005 gel): another increase
